Results reported in the NIST ThermoML archive (doi:10.1016/j.fluid.2016.02.011).

Legend:
[1] = refractive index (Na D-line) (dimensionless); xn = mol fraction of the nth substance listed; settings: 100 kPa, Liquid, minimum deviations angle, x1 = 1
[2] = refractive index (Na D-line) (dimensionless); settings: 100 kPa, Liquid, minimum deviations angle

CCCCCC[n+]1ccn(C)c1.O=S(=O)([N-]S(=O)(=O)C(F)(F)F)C(F)(F)F + Brc1ccccc1
[1]
Settings	refractive index
282.99 K	1.4329
284.26 K	1.4324
285.8 K	1.432
286.91 K	1.4317
288.05 K	1.4313
289.17 K	1.431
290.22 K	1.4307
291.28 K	1.4304
292.38 K	1.4301
293.39 K	1.4298

Brc1ccccc1 [bromobenzene]
[2]
Settings	refractive index
283 K	1.5612
284.4 K	1.5605
285.75 K	1.5598
286.96 K	1.5591
287.98 K	1.5585
288.99 K	1.558
290.11 K	1.5574
291.22 K	1.5568
292.32 K	1.5563
293.32 K	1.5557

CCCCCC[n+]1ccn(C)c1.O=S(=O)([N-]S(=O)(=O)C(F)(F)F)C(F)(F)F
[2]
Settings	refractive index
282.99 K	1.4329
284.26 K	1.4324
285.8 K	1.432
286.91 K	1.4317
288.05 K	1.4313
289.17 K	1.431
290.22 K	1.4307
291.28 K	1.4304
292.38 K	1.4301
293.39 K	1.4298
